This is an account of results in patent US20240307386A1 (priority 2018, published 2024).

One test has as its system 5-HT2 receptor. Briefly: DOI-induced head twitch model in mice. The test is classed as in vivo. The settings on record: p.o., 0.5 hr before s.c. DOI.
Another test deals with 5-HT2A (Homo sapiens (Human), UniProt P28223).
A further test relates to AKT (at Threonine 308). Nature of the test: Phosphorylation of mTOR pathway proteins in rat PFC: AKT. The test is classed as in vivo. As to conditions: 1 hour and 24 hours after one i.p. injection; ketamine 30 mg/kg, Formula A 3 mg/kg.
Test [1] can be described thus: Clinical studies in patients with acute exacerbated schizophrenia. The test is classed as in vivo, human. As to conditions: 60 mg P.O. once daily, up to 28 days. The source says: Social avoidance can be a critical and debilitating symptom in patients suffering from anxiety disorders, especially social anxiety disorder, as well as in patients suffering from traumatic anxiety disorders. Social avoidance is often one of the key determinants of whether a person with a severe anxiety disorder is capable of maintaining familial relationships or employment relationships. […] Negative symptoms of schizophrenia can be divided into two categories: emotional experience (e.g., emotional withdrawal, passive social withdrawal, active social avoidance) and emotional expression (e.g., blunted effect, poor rapport, lack of spontancity, and motor retardation). […] These are the symptoms that are most highly correlated with interpersonal functioning.

In another test the test system is mTORC1 signaling pathway. Nature of the test: mTORC1 signaling pathway in mPFC of adult rats, dose range study. Format: in vivo, rat. The settings on record: Formula A 1 to 8 mg/kg i.p.; ketamine 30 mg/kg; 60 min, 90 min or 24 hours.
Test [2] relates to P70s6 kinase (at Threonine 389). Nature of the test: Phosphorylation of mTOR pathway proteins in rat PFC: P70s6 kinase. The test is classed as in vivo. As to conditions: over 24 hours after one i.p. injection; ketamine 30 mg/kg, Formula A 3 mg/kg.
The test system of test [3] is AMPA receptor currents in mPFC neurons. Nature of the test: AMPA-induced currents in rat mPFC slices, whole-cell patch clamp. Format: cell-based. From the text: (§1) Combined administration of the antipsychotic, olanzapine, and the SSRI, fluoxetine, similarly induces rapid antidepressant activity in humans and animals (Tohen et al., 2010); likewise, combined application of olanzapine and fluoxetine is required to induce AMPA receptor currents in vitro.

The next test deals with mTOR (at Serine 2448). Briefly: Phosphorylation of mTOR pathway proteins in rat PFC: mTOR. The settings on record: one i.p. injection; ketamine 30 mg/kg, Formula A 3 mg/kg. Format: in vivo.
For a further test, the target named is D2 (Homo sapiens (Human), UniProt P14416).
Test [4] relates to NMDA receptor currents in mPFC neurons. Nature of the test: NMDA-induced currents in rat mPFC slices, whole-cell patch clamp. The test is classed as cell-based.
Text: as §1

For test [5] the following is noted: 40-minute infusion, total dose 0.5 mg/kg; after 24 hours; cited from earlier work.
The mark [6] stands for this setting: bath applied 3-100 nM, 5 min later.

Each structure is given as a SMILES string.

Turning to `O=C1CN2c3c(cccc3[C@@H]3CN(CCCOc4ccc(F)cc4)CC[C@@H]32)N1` [Example 1, (6bR,10aS)-8-(3-(4-fluorophenoxy)propyl)-6b,7,8,9,10,10a-hexahydro-1H-pyrido[3′,4′:4,5]pyrrolo[1,2,3-de]quinoxalin-2(3H)-one], the “EC50 for reducing DOI-induced head twitches” value in the test with 5-HT2 receptor amounted to 0.44 mg/kg.

For `CN1CCN2c3c(cccc31)[C@@H]1CN(CCCC(=O)c3ccc(F)cc3)CC[C@@H]12` [Formula A, lumateperone], the Ki was 10 nM on 5-HT2A and 49 nM at D2. Further, in the test on AKT (at Threonine 308), the “increase in phosphorylation of AKT at thr308” value was about 50%. In test [1], the “symptoms of emotional experience compared to placebo” value was “significant and unexpected improvement”. In addition, the “activation of mTORC1 signaling pathway in mPFC (p-Akt thr308, p-P70S6K)” value in the test on mTORC1 signaling pathway was “rapidly activates the mTORC1 signaling pathway”. Besides, in test [2], the p70s6K phosphorylation result is “progressively increases”. In test [3] (30 nM, alone and with SCH 23390 (1 μM)), the “AMPA-induced currents compared to control” value is recorded as “Substantially the same results”. Also, the AMPA currents entry in test [3] (setting [6]) was “enhanced”. In the test on mTOR (at Serine 2448), the “change in mTOR phosphorylation” value is on record as “Neither ketamine nor the Compound of Formula A results in a change”. For the same molecule, in test [4] (30 nM), the “NMDA-induced currents compared to control” value is listed as about 150%. Besides, the NMDA currents entry in [4] (setting [6]) is reported as “enhanced”.

Turning to `CNCCC(Oc1ccc(C(F)(F)F)cc1)c1ccccc1` (stereo not shown) [fluoxetine], the activity at 0.1 µM in test [3] (Rattus norvegicus, Neuron, 100 nM fluoxetine, read-out: AMPA-induced current, % of control) is about 90%.

For `CNC1(c2ccccc2Cl)CCCCC1=O` (stereo not shown) [ketamine], in the test with AKT (at Threonine 308), the “increase in phosphorylation of AKT at thr308” value is listed as about 50%. Besides, in the test with mTORC1 signaling pathway, the “activation of mTORC1 signaling pathway in mPFC (p-Akt thr308, p-P70S6K)” value is listed as “rapidly activates the mTORC1 signaling pathway”. The p70s6K phosphorylation entry in test [2] is on record as “transiently increase”. Besides, the “change in mTOR phosphorylation” value in the test on mTOR (at Serine 2448) is on record as “Neither ketamine nor the Compound of Formula A results in a change”. In addition, in test [5], the “ratings on the Hamilton Depression Rating Scale (HDRS) compared to placebo” value was “significantly improved”.

On to `Cc1cc2c(s1)Nc1ccccc1N=C2N1CCN(C)CC1` [olanzapine], for which the activity at 0.003 µM in test [3] (Rattus norvegicus, Neuron, 3 nM olanzapine alone, read-out: AMPA-induced current, % of control) was about 100%.
